In US3948890A, “4H-1,3-benzoxazin-2-one-3-acetohydroxamic acid derivatives” (Farmitalia Societa Farmaceutica Italia, priority 1971, dated 1976):
Read-outs that look alike come from different tables or passages of the source.

Key:
[1] = system: reserpinized swimming rat; test: Antireserpine effect in a behavior test, swimming rat; type: in vivo
albino male mice [2] = test: Acute toxicity (LD50), single oral and intravenous administration; type: in vivo; conditions: intravenous route
Description: (§1) The acute toxicity (LD50), determined on albino male mice (weight 20-22 g) by a single oral and intravenous administration, is settled within 48 hours.

[3] = as above; type: in vivo, albino male mice; conditions: mouse, in vivo, single administration, within 48 hours
Description: as §1

albino male mice [4] = test: Spontaneous behavior, motor coordination, muscular tension and nociceptive reflexes; type: in vivo; conditions: up to 200 mg/kg i.v., observation 5 hours
Source text: Among the compounds of the invention, 4H-1,3-benzoxazin-2-one-3-[N-(β-hydroxyethyl)-piperazino-methyl]-acetohydroxamic acid has been particularly studied and compared with 4H-1,3-benzoxazin-2-one-3-acetohydroxamic acid.

[5] = Highest tolerated intraperitoneal dose; conditions: in vivo, ip
[6] = Antagonism to the reserpine induced syndrome (ptosis, rectal temperature); type: in vivo; parameters: Ptosis: scale not given here
[7] = 25 mg/kg intraperitoneal, + R (reserpine)
[8] = 25.0 mg/kg intraperitoneal, + R (reserpine)
[9] = 50.0 mg/kg intraperitoneal, + R (reserpine)
[10] = 100.0 mg/kg intraperitoneal, + R (reserpine)
[11] = 50 mg/kg intraperitoneal, + R (reserpine)
[12] = reserpine alone, 3.0 mg/kg intraperitoneal
[13] = Table 4, 50 mg/kg intraperitoneal, reserpine not stated

O=C(CN1Cc2ccccc2OC1=O)N(O)CN1CCN(CCO)CC1 [4H-1,3-benzoxazin-2-one-3-[N-(β-hydroxyethyl)piperazinomethyl] -acetohydroxamic acid]
Average time to get out of the basin [1, 7]: 28 s
Number of the animals which do not get out [1, 7]: 0/10
getting out of a basin full of water ([1]; in words, pretreated plus reserpine, versus control animals): manage to get out of the basin within a period of time slightly longer than that of the control animals
times less toxic than Imipramine (albino male mice [2]): about 20 times
less toxic than 4H-1,3-benzoxazin-2-one-3-acetohydroxamic acid (albino male mice [2]; in words): about half again less toxic
LD50 at 48 h ([3]; po, per os): > 3000 mg/kg
LD50 at 48 h ([3]; intravenous): 576 mg/kg
motor apparatus coordination (albino male mice [4]): does not modify
muscular tension (albino male mice [4]): does not modify
nociceptive reflexes (albino male mice [4]): does not modify
spontaneous behavior (albino male mice [4]): does not modify
MTD ([5]; read-out: tolerated up to dose): ≥ 300 mg/kg
Ptosis [6, 8]: 24
Rectal temperature [6, 8]: 33.1 °C
Ptosis [6, 9]: 19
Rectal temperature [6, 9]: 35.6 °C
Ptosis [6, 10]: 2
Rectal temperature [6, 10]: 37.6 °C
antagonizing the hypothermia induced by reserpine ([6]; in words, Table 1): most active
antagonizing the ptosis induced by reserpine ([6]; in words, Table 1): most active

O=C(CN1Cc2ccccc2OC1=O)NO [4H-1,3-benzoxazin-2-one-3-acetohydroxamic acid]
Average time to get out of the basin [1, 11]: 25 s
Number of the animals which do not get out [1, 11]: 0/10
LD50 at 48 h ([3]; po, per os): ~2000 mg/kg
LD50 at 48 h ([3]; intravenous): 350 mg/kg
Ptosis [6, 9]: 29
Rectal temperature [6, 9]: 36.0 °C
Ptosis [6, 10]: 5
Rectal temperature [6, 10]: 38.1 °C

COC(=O)[C@H]1[C@H]2C[C@@H]3c4[nH]c5cc(OC)ccc5c4CCN3C[C@H]2C[C@@H](OC(=O)c2cc(OC)c(OC)c(OC)c2)[C@@H]1OC [Reserpine, reference compound]
getting out of a basin full of water ([1]; in words, reserpinized animals): can no longer get out of a basin full of water
Number of the animals which do not get out ([1]; reserpine alone, 5 mg/kg intraperitoneal): 10/10
Ptosis [6, 12]: 40
Rectal temperature [6, 12]: 32.1 °C

CN(C)CCCN1c2ccccc2CCc2ccccc21 [Imipramine, reference compound]
Average time to get out of the basin [1, 7]: 40 s
Number of the animals which do not get out [1, 7]: 7/10
MTD ([5]; read-out: highest tolerated dose): 50 mg/kg
Ptosis [6, 9]: 29
Rectal temperature [6, 9]: 36.0 °C

CCN(CC)CCN(CC)CN(O)C(=O)CN1Cc2ccccc2OC1=O [Example 2, 4H-1,3-benzoxazin-2-one-3-[(N,N,N'triethyl)-ethylenediaminomethyl]-acetohydroxamic acid]
Average time to get out of the basin [1, 13]: 10 s
Number of the animals which do not get out [1, 13]: 1/10
test results ([1]; in words): good test results
LD50 at 48 h ([3]; po, per os): 2550 mg/kg
LD50 at 48 h ([3]; intravenous): 328 mg/kg
